One compound from PMC10603551 (Oncology Reports, 2023) can be followed below.

The experiment concerns the target T1, STAT5b (Homo sapiens, UniProt P51692).
T1 sequence (P51692 1-787): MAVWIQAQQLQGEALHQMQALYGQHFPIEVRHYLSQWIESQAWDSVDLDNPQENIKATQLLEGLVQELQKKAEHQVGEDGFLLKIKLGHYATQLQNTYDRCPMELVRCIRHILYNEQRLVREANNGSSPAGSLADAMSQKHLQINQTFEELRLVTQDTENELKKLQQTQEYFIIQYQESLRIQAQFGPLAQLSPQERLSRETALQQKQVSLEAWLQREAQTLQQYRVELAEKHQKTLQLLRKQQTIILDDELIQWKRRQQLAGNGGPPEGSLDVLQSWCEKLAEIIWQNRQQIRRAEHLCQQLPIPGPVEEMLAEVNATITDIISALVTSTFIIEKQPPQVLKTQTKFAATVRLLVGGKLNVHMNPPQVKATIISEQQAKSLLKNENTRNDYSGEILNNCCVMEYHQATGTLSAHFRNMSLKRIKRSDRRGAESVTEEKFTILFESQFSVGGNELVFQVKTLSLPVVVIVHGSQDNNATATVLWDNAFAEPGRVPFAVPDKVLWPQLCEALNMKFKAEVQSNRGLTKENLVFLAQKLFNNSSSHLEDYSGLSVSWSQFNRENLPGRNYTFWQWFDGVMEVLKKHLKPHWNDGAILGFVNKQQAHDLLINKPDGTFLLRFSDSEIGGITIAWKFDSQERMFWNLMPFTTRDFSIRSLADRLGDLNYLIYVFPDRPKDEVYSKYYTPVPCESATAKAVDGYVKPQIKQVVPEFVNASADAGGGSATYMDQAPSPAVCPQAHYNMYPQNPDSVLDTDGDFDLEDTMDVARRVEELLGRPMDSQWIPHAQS
In kind it is binding.

Where a name gives a salt, the structure may show the parent alone.

Usually Ki stands for the equilibrium dissociation constant of an inhibitor or competing ligand from its target. Low values mean higher affinity, high ones lower affinity.

Turning to `CC[C@@]1(O)C(=O)OCc2c1cc1n(c2=O)Cc2cc3c(CN(C)C)c(O)ccc3nc2-1` [compound 108, topotecan hydrochloride], the inhibition constant (Ki) lay within 1000 to 3000 nM.
